The target in experiment [1] is T1, AHK2 (Arabidopsis thaliana, UniProt Q9C5U2).
T1 sequence (Q9C5U2 1-1176): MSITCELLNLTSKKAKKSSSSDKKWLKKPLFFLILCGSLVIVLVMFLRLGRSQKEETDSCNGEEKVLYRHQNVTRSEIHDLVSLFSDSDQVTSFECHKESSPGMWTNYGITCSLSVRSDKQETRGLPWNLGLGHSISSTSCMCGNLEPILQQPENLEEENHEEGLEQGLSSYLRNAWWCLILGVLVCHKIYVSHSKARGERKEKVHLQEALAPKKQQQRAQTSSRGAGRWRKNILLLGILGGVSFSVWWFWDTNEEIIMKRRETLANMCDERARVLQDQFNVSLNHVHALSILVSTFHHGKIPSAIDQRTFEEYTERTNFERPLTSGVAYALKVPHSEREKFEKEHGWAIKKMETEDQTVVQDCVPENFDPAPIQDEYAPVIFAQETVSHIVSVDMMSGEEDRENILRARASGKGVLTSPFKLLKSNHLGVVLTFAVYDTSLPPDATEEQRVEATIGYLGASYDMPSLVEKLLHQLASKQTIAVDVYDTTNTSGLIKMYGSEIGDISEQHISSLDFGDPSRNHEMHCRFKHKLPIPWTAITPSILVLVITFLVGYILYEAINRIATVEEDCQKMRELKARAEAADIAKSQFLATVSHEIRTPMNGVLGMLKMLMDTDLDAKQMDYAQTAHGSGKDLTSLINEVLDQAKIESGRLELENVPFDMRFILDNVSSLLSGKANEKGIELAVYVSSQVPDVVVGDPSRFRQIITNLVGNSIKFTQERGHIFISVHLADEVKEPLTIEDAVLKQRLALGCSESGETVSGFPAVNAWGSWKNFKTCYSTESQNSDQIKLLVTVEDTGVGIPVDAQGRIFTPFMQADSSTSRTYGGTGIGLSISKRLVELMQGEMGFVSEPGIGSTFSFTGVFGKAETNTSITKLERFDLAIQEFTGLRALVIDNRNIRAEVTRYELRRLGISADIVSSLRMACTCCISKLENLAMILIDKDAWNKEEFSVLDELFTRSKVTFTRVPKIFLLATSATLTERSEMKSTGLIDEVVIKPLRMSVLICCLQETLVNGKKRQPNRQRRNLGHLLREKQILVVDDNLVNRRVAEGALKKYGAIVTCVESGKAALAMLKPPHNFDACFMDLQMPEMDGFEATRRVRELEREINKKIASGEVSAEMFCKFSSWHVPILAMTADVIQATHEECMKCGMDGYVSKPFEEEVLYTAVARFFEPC
As to the kind of experiment: competition with [3H]tZ, plant microsomes. Type of experiment: binding. The following applies: pH 7.4, 0-4 °C. An excerpt: competition with [3H]tZ, plant microsomes on AHK2

The target in experiment [2] is T2, AHK3 (Arabidopsis thaliana, UniProt Q9C5U1).
T2 sequence (Q9C5U1 1-1036): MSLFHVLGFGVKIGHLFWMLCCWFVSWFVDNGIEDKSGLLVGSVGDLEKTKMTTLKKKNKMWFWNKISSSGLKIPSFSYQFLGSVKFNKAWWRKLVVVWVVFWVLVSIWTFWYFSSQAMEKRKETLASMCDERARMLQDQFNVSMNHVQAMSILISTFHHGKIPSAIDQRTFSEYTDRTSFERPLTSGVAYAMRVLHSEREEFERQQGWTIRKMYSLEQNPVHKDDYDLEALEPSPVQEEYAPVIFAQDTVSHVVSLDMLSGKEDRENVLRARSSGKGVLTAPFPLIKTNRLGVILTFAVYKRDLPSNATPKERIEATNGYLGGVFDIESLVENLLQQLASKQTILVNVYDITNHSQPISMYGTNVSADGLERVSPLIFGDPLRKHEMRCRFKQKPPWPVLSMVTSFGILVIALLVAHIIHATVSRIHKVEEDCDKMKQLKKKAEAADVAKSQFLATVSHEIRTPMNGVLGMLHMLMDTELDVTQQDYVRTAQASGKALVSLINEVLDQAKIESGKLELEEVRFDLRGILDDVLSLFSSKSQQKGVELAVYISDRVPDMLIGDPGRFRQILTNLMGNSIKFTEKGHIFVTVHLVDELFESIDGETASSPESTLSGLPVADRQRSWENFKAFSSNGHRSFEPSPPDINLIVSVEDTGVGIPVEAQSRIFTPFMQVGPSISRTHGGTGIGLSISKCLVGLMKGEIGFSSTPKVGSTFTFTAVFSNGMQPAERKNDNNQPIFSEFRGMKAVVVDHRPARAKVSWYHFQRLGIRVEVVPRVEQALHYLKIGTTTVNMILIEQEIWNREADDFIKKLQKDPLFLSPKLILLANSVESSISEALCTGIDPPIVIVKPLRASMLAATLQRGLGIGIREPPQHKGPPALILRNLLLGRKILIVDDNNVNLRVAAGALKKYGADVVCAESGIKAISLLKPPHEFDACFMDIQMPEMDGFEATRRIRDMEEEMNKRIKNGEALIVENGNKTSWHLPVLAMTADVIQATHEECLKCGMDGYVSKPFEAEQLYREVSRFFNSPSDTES
As to the kind of experiment: competition with [3H]tZ, plant microsomes. Also noted: full-length cDNA in pB7FWG2-AHK3, C-terminal eGFP fusion, transiently expressed in Nicotiana benthamiana leaves, microsomes. The format is binding. The following applies: pH 7.4, 0-4 °C. An excerpt:
competition with [3H]tZ, plant microsomes on AHK3

Experiment [3] has as its target T3, ZmHK1 (Zea mays, UniProt Q9FRY7).
T3 sequence (Q9FRY7 1-974): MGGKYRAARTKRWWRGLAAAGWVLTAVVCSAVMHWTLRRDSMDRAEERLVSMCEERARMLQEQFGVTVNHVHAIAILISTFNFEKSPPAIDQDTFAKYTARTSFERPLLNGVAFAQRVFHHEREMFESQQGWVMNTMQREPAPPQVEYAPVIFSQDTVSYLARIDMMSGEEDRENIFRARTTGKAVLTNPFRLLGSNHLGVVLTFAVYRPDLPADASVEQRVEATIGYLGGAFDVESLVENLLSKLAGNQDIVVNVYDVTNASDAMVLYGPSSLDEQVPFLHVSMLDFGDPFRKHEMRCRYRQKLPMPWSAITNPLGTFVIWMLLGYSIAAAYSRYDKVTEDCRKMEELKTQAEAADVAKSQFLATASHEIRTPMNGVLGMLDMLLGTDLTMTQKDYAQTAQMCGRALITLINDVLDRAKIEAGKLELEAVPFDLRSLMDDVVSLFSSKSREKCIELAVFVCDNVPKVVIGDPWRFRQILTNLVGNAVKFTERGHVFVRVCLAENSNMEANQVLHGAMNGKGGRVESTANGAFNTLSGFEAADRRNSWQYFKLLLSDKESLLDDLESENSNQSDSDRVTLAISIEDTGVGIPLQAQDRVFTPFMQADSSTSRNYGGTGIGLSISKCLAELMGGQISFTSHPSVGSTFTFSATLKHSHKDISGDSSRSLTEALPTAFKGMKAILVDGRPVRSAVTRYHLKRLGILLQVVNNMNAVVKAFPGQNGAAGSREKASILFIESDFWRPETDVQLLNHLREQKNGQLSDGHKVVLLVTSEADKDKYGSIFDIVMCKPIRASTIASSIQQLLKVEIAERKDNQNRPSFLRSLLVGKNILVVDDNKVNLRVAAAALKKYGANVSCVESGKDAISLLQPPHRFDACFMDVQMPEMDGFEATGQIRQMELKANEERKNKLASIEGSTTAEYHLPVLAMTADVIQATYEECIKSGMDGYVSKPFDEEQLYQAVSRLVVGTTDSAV
In words: competition with [3H]tZ, plant microsomes. The format is binding. Also noted: full-length coding region in pB7FWG2-ZmHK1, C-terminal eGFP fusion, transiently expressed in Nicotiana benthamiana leaves, microsomes. Particulars: pH 7.4, 0-4 °C.

In experiment [4] the target is T1, AHK2. In words: biochemical. An excerpt: [3H]tZ saturation binding to plant microsomes, Scatchard on AHK2
The target in experiment [5] is AHK4 (Arabidopsis thaliana, UniProt Q9C5U0). In words: biochemical.
Experiment [6] addresses T2, AHK3. As to the kind of experiment: biochemical. An excerpt:
[3H]tZ saturation binding to plant microsomes, Scatchard on AHK3

Experiment [7] concerns the target T3, ZmHK1. In words: biochemical. An excerpt: [3H]tZ saturation binding to plant microsomes, Scatchard on ZmHK1

Drawing on paper PMC4378623, “Plant membrane assays with cytokinin receptors underpin the unique role of free cytokinin bases as biologically active ligands” (Journal of Experimental Botany, 2015), this text covers Kd for four compounds.

SMILES strings stand for the structures.

By Kd is commonly meant a measure of binding affinity in units of concentration. Low values mean a tighter complex, high ones a looser complex.

Sequence of AHK4 (Q9C5U0 whole entry): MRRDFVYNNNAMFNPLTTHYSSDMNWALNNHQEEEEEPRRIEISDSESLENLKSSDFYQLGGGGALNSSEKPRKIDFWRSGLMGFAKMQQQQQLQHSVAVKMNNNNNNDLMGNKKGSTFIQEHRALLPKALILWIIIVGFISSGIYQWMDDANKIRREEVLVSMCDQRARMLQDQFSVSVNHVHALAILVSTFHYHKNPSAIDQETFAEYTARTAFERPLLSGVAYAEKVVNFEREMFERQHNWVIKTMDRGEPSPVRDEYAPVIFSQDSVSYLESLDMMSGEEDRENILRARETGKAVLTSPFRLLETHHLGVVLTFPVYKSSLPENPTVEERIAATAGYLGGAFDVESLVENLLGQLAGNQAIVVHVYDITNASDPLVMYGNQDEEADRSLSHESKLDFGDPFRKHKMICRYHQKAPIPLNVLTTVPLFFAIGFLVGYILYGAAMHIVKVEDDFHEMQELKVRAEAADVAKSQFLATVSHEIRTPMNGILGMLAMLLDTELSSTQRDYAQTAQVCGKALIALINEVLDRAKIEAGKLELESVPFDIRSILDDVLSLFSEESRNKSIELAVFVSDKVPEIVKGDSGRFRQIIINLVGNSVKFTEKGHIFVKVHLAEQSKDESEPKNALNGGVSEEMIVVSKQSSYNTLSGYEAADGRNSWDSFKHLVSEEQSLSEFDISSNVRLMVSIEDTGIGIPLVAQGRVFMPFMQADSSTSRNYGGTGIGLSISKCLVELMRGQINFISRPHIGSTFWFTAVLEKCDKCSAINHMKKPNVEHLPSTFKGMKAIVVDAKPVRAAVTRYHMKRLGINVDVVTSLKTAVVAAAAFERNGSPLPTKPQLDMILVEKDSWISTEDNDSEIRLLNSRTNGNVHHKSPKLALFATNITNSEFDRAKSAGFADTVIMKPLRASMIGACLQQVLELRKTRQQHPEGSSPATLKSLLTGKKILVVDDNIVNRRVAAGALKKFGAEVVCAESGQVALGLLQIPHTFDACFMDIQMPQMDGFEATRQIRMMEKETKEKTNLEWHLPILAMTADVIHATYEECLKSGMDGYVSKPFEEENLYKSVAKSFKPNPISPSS

Regarding `CC(C)=CCNc1ncnc2nc[nH]c12` [iP, isopentenyladenine], the values for the Kd in experiment [1], in experiment [2] and in experiment [3] were 1.42 ± 0.52 nM, 42 ± 13.5 nM and 0.61 ± 0.27 nM, respectively.
For `C/C(=C\CNc1ncnc2[nH]cnc12)CO` [tZ, trans-zeatin], the dissociation constant Kd was 1.93 ± 0.26 nM in experiment [4], 2 to 8 nM in experiment [5], 4.26 ± 1.69 nM in experiment [6] and 7.97 ± 1.96 nM in experiment [7].
With `Nc1ncnc2nc[nH]c12` [Ade, adenine], the Kd in experiment [2] is > 10000 nM.
Consider `C[C@H](CO)CCNc1ncnc2nc[nH]c12` [DZ, dihydrozeatin], for which the Kd in experiment [1] is 161 ± 55 nM; in experiment [2] it was 33.1 ± 6.2 nM; in experiment [3], 128 ± 47 nM.
